From patent US6635634B2, “Propanolamine derivatives” (Fujisawa Pharmaceutical Co., Ltd., priority 1998, dated 2003) come the findings set out here.

For one data set, the system named is anesthetized dog. As to the kind of experiment: Effect on the increase in intravesical pressure induced by carbachol in anesthetized dog (Test 1). Type of data set: in vivo. Conditions: for Increase in intravesical pressure (mmHg): 0.01 mg/kg intravenously 5 minutes before carbachol (1.8 μg/kg); for effect on the increase in intravesical pressure induced by carbachol (in words): anesthetized dog, 0.01 mg/kg intravenously. Here is the method:
Effect on the increase in intravesical pressure induced by carbachol in anesthetized dog
Female Beagle dogs weighing 8.0-15.0 kg were fasted for 24 hours and maintained under halothane anesthesia. A 12F Foley catheter was lubricated with water soluble jelly, inserted into the urethral orifice and advanced approximately 10 cm until the balloon tip was placed well inside the bladder. The balloon was then inflated with 5 ml of room air and catheter slowly withdrawn just part the first resistance that is felt at the bladder neck. Urine was completely drained out throught the catheter, and 30 ml of biological saline was infused. The catheter was connected to pressure transducer, and intravesical pressure was continuously recorded. The test compound was injected intravenously at 5 minutes before the administration of carbachol (1.8 μg/kg).
According to a similar manner to that of Test 1 described before, the effects of the present compounds on the intravesical pressure were evaluated.

In data set [1] the test system is anesthetized rat. The experiment in a line: Effect on cystometrogram in anesthetized rat (Test 2). The class given is in vivo. The note with it: for bladder capacity (relative % of before value): 0.01 mg/kg intravenously, N = 5. The text has this: Effect on Cystometrogram in Anesthetized Rat Male S.D. rats, aged 7-9 weeks, were anesthetized with urethane (1.2 g/kg, sc) and supine on a board. After a midline incision in the abdomen, the bladder was exposed. Polyethylene catheters, which were used to measure the intravesical pressure and to infuse saline, were inserted into the bladder through a small incision at the apex of the bladder dome. The bladder catheters were connected to an infusion pump and pressure transducer respectively. Saline was infused a rate of 5.0 ml/hr for 1 hour. Cystometrography was performed at 15 minutes intervals for 1 hour. The bladder capacity (volume) was calculated from the time required to fill the bladder. The test compound was administered intravenously via femoral vein.

Data set [2] relates to anesthetized rat. The experiment in a line: Effect on rhythmic contraction of bladder in anesthetized rat (Test 3). Type of data set: in vivo. The note with it: dose of 0.1 mg/kg intravenously. The text has this:
Effect on Rhythmic Contraction of Bladder in Anesthetized Rat
Male S.D. rats, aged 7-8 weeks, were anesthetized with urethane (1.2 g/kg, ip) and supine on a board. After a midline incision in the abdomen, the bladder was exposed. Balloon catheter, which was used to measure the intravesical pressure, was inserted into the bladder through a small incision at the apex of the bladder dome. The balloon was then inflated with distilled water and the balloon port of the catheter was connected to pressure transducer. Rhythmic contraction of bladder induced by increase intravesical pressure to 10 mmHg. The test compound was administered intravenously via femoral vein.

Turning to `Cl.Oc1cc2c(cc1Cl)CC(N(Cc1ccccc1)C[C@H](O)COc1ccccc1)CCC2` (stereo partly drawn), the melting point was 94 to 99 °C (dec.).

`Cl.Oc1ccc2c(c1)CCCC(NC[C@H](O)COc1ccccc1)C2` (stereo partly drawn): the melting point was 53.5 °C (dec.).

Regarding `Cl.Oc1cccc2c1CCCC(NC[C@H](O)COc1ccccc1)C2` (stereo partly drawn), the melting point is 73 to 84 °C (dec.).

Consider `Cl.O=c1[nH]c2cccc(OCC(O)CNC3CCCc4cc(O)ccc4C3)c2[nH]1` (stereo not drawn), for which the melting point is 100.5 °C (dec.).

As to `O=c1[nH]c2cccc(OCC(O)CN(Cc3ccccc3)C3CCCc4cc(O)ccc4C3)c2[nH]1` (stereo not drawn) [Example 11, 1-[N-benzyl-N-(6,7,8,9-tetrahydro-2-hydroxy-5H-benzocyclohepten-6-yl)amino]-3-(1,3-dihydro-2-benzoimidazolon-4-yloxy)-2-propanol], the melting point is 111 to 133 °C (dec.).

As to `COc1ccc(C(Cc2ccccc2)NC[C@H](O)c2ccc(O)c(NS(C)(=O)=O)c2)cc1OC` (stereo partly drawn) [Test Compound (1), N-[5-[2-[l-(3,4-Dimethoxyphenyl)-2-phenylethylamino]-1(R)-hydroxyethyl]-2-hydroxyphenyl]methanesulfonamide], in the data set with anesthetized dog (Control 5.0 ± 0.9, N = 3, P<0.01 vs Control), the “Increase in intravesical pressure (mmHg)” value came out at 1.8 ± 0.3 mmHg. Besides, the “effect on the increase in intravesical pressure induced by carbachol (in words)” value (“effect on the increase” for short) with anesthetized dog is on record as “inhibited the increase in intravesical pressure induced by carbachol”.

For `O=c1n(CCCC2CCCC2)nnn1-c1ccc(S(=O)(=O)Nc2ccc(CCNC[C@H](O)c3cccnc3)cc2)cc1` [Test Compound (2), N-[4-[2-[2(R)-Hydroxy-2-(pyridin-3-yl)ethylamino]ethyl]-phenyl]-4-[4-(3-cyclopentylpropyl)-5-tetrazolon-1-yl]-benzenesulfonamide], the “Increase in intravesical pressure (mmHg)” value in the data set on anesthetized dog (Control 5.0 ± 1.2, N = 4, P<0.05 vs Control) is listed as 2.3 ± 1.5 mmHg. Moreover, the “effect on the increase” value with anesthetized dog is listed as “inhibited the increase in intravesical pressure induced by carbachol”.

Consider `CS(=O)(=O)Nc1cc(C(O)CNCCOc2ccc3c(c2)[nH]c2ccccc23)ccc1O.Cl` (stereo not drawn) [Test Compound (3), N-[5-[2-[2-(9H-Carbazol-2-yloxy)ethylamino]-1-hydroxyethyl]-2-hydroxyphenyl]methanesulfonamide hydrochloride], for which the “Increase in intravesical pressure (mmHg)” value with anesthetized dog (Control 5.0 ± 0.5, N = 3, P<0.01 vs Control) came to 1.7 ± 0.6 mmHg. The “effect on the increase” value in the data set on anesthetized dog is recorded as “inhibited the increase in intravesical pressure induced by carbachol”.

Take `CCOC(=O)COc1ccc2c(c1)C[C@@H](NC[C@H](O)c1cccc(Cl)c1)CC2.Cl` [compound (4), 2(S)-[ (7-Ethoxycarbonylmethoxy-1,2,3,4-tetrahydro-naphthalen-2-yl)amino]-1(R)-(3-chlorophenyl)ethanol hydrochloride]: the “bladder capacity (relative % of before value)” value is listed as 152% with anesthetized rat [1] (time 0-15 minutes, vehicle 128); 146% in the data set on anesthetized rat [1] (time 15-30 minutes, vehicle 111); 143% in the data set on anesthetized rat [1] (time 30-45 minutes, vehicle 114); 151% in the data set on anesthetized rat [1] (time 45-60 minutes, vehicle 104). In addition, the “effect on bladder capacity (in words)” value in the data set with anesthetized rat [1] (dose of 0.01 mg/kg intravenously) is listed as “increased in bladder capacity”.

`COC(=O)COc1ccc(C[C@@H](C)NC[C@H](O)c2cccc(Cl)c2)cc1` [compound (5), Methyl 4-[2(R)-[2-(3-chlorophenyl)-2(R)-hydroxyethyl-amino]propyl]phenoxyacetate]: in the data set on anesthetized rat [2], the “effect on contractile force of bladder (in words)” value is “decreased in contractile force of bladder”.

Turning to “N-butyl-2-[8-[[(2S)-2-hydroxy-3-[4-hydroxy-3-methanesulfonylamino]phenoxypropyl]amino]-6,7,8,9-tetrahydro-5H-benzocyclohepten-2-yloxy]acetamide hydrochloride [Example 155]”, in the data set with anesthetized dog (similar manner to Test 1, anesthetized dog), the “ED50 (effect on the intravesical pressure)” value turned out to be 0.0108 mg/kg.

What is called melting point is the temperature, or range, at which the solid turns liquid.
